Test system: Acinetobacter baumannii strains
Experiment: Antibiotic susceptibility test (CLSI disk diffusion test method, read per CLSI 2016); as to antibiotic susceptibility S/I/R: key: ‘S’ means susceptible; ‘I’ means intermediate; ‘R’ means resistant; as to antibiotic susceptibility class: key: ‘S’ means susceptible; ‘I’ means intermediate; ‘R’ means resistant; as to susceptibility category (S/I/R): key: ‘S’ means susceptible; ‘I’ means intermediate; ‘R’ means resistant
Assay type: cell-based
Set-up: antibiotic susceptibility test value / susceptibility test value (number given before S/I/R) / antibiotic susceptibility value: unit not given here

piperacillin-tazobactam
R: antibiotic susceptibility class (host strain YMC14/01/C29) | antibiotic susceptibility class (host strain YMC14/01/IP122) | antibiotic susceptibility class (host strain YMC14/01/L8) | antibiotic susceptibility class (host strain YMC14/01/P31) | antibiotic susceptibility class (host strain YMC14/01/P117) | antibiotic susceptibility class (host strain YMC14/01/P224) | antibiotic susceptibility class (host strain YMC14/01/P727) | antibiotic susceptibility class (host strain YMC14/01/P728) | antibiotic susceptibility class (host strain YMC14/01/R130) | antibiotic susceptibility class (host strain YMC14/01/R160) | antibiotic susceptibility class (host strain YMC14/01/R198) | antibiotic susceptibility class (host strain YMC14/01/R257) | antibiotic susceptibility class (host strain YMC14/01/R270) | antibiotic susceptibility class (host strain YMC14/01/R324) | antibiotic susceptibility class (host strain YMC14/01/R443) | antibiotic susceptibility class (host strain YMC14/01/R451) | antibiotic susceptibility class (host strain YMC14/01/R560) | antibiotic susceptibility class (host strain YMC14/01/R617) | antibiotic susceptibility class (host strain YMC14/01/R671) | antibiotic susceptibility class (host strain YMC14/01/R732) | antibiotic susceptibility class (host strain YMC14/01/R767) | antibiotic susceptibility class (host strain YMC14/01/R904) | antibiotic susceptibility class (host strain YMC14/01/R905) | antibiotic susceptibility class (host strain YMC14/01/R921) | antibiotic susceptibility class (host strain YMC14/01/R941) | antibiotic susceptibility class (host strain YMC14/01/R958) | antibiotic susceptibility class (host strain YMC14/01/R1006) | antibiotic susceptibility class (host strain YMC14/01/R1199) | antibiotic susceptibility class (host strain YMC14/01/R1659) | antibiotic susceptibility class (host strain YMC14/01/R1722) | antibiotic susceptibility class (host strain YMC14/01/R1752) | antibiotic susceptibility class (host strain YMC14/01/R2429) | antibiotic susceptibility class (host strain YMC14/01/R2572) | antibiotic susceptibility class (host strain YMC14/01/R2855) | antibiotic susceptibility class (host strain YMC14/01/R2945) | antibiotic susceptibility class (host strain YMC14/01/R3007) | antibiotic susceptibility class (host strain YMC14/01/R3129) | antibiotic susceptibility class (host strain YMC14/01/R3317) | antibiotic susceptibility class (host strain YMC14/01/R3474) | antibiotic susceptibility class (host strain YMC14/01/R3574) | antibiotic susceptibility class (host strain YMC14/01/U313) | antibiotic susceptibility class (host strain YMC14/01/U318) | antibiotic susceptibility class (host strain YMC14/02/L18) | antibiotic susceptibility class (host strain YMC14/02/P47) | antibiotic susceptibility class (host strain YMC14/02/R1860) | antibiotic susceptibility class (host strain YMC14/02/R2417) | antibiotic susceptibility class (host strain YMC14/02/R2599) | antibiotic susceptibility class (host strain YMC14/02/R2668) | antibiotic susceptibility class (host strain YMC14/02/R2758) | antibiotic susceptibility class (host strain YMC14/02/R2781) | antibiotic susceptibility class (host strain YMC14/02/R3106) | antibiotic susceptibility class (host strain YMC14/02/R3419) | antibiotic susceptibility class (host strain YMC14/02/U1607) | antibiotic susceptibility class (host strain YMC14/03/L9) | antibiotic susceptibility class (host strain YMC14/03/P471) | antibiotic susceptibility class (host strain YMC14/03/R122) | antibiotic susceptibility class (host strain YMC14/03/R217) | antibiotic susceptibility class (host strain YMC14/03/R380) | antibiotic susceptibility class (host strain YMC14/03/R618) | antibiotic susceptibility class (host strain YMC14/03/R2144) | antibiotic susceptibility class (host strain YMC14/03/U4616) | antibiotic susceptibility class (host strain YMC14/04/R1078) | antibiotic susceptibility class (host strain YMC14/04/R1080) | antibiotic susceptibility S/I/R (host strain YMC14/06/R2359) | susceptibility category (S/I/R) (host strain YMC14/06/R2359) | antibiotic susceptibility S/I/R (host strain YMC14/08/R1169) | susceptibility category (S/I/R) (host strain YMC14/08/R1169) | antibiotic susceptibility S/I/R (host strain YMC14/08/T90) | susceptibility category (S/I/R) (host strain YMC14/08/T90) | antibiotic susceptibility S/I/R (host strain YMC15/02/R436) | susceptibility category (S/I/R) (host strain YMC15/02/R436) | antibiotic susceptibility S/I/R (host strain YMC15/02/T28) | susceptibility category (S/I/R) (host strain YMC15/02/T28) | antibiotic susceptibility S/I/R (host strain YMC15/03/R1604) | susceptibility category (S/I/R) (host strain YMC15/03/R1604) | antibiotic susceptibility S/I/R (host strain YMC15/09/R1869) | susceptibility category (S/I/R) (host strain YMC15/09/R1869) | antibiotic susceptibility S/I/R (host strain YMC16/01/P11) | susceptibility category (S/I/R) (host strain YMC16/01/P11) | antibiotic susceptibility S/I/R (host strain YMC16/01/R123) | susceptibility category (S/I/R) (host strain YMC16/01/R123) | antibiotic susceptibility S/I/R (host strain YMC16/01/R198) | susceptibility category (S/I/R) (host strain YMC16/01/R198) | antibiotic susceptibility S/I/R (host strain YMC16/01/R353)
128: antibiotic susceptibility test value (host strain YMC14/01/C29) | antibiotic susceptibility test value (host strain YMC14/01/IP122) | antibiotic susceptibility test value (host strain YMC14/01/L8) | antibiotic susceptibility test value (host strain YMC14/01/P31) | antibiotic susceptibility test value (host strain YMC14/01/P117) | antibiotic susceptibility test value (host strain YMC14/01/P224) | antibiotic susceptibility test value (host strain YMC14/01/P727) | antibiotic susceptibility test value (host strain YMC14/01/P728) | antibiotic susceptibility test value (host strain YMC14/01/R130) | antibiotic susceptibility test value (host strain YMC14/01/R160) | antibiotic susceptibility test value (host strain YMC14/01/R198) | antibiotic susceptibility test value (host strain YMC14/01/R257) | antibiotic susceptibility test value (host strain YMC14/01/R270) | antibiotic susceptibility test value (host strain YMC14/01/R324) | antibiotic susceptibility test value (host strain YMC14/01/R443) | antibiotic susceptibility test value (host strain YMC14/01/R451) | antibiotic susceptibility test value (host strain YMC14/01/R560) | antibiotic susceptibility test value (host strain YMC14/01/R617) | antibiotic susceptibility test value (host strain YMC14/01/R671) | antibiotic susceptibility test value (host strain YMC14/01/R732) | antibiotic susceptibility test value (host strain YMC14/01/R767) | antibiotic susceptibility test value (host strain YMC14/01/R904) | antibiotic susceptibility test value (host strain YMC14/01/R905) | antibiotic susceptibility test value (host strain YMC14/01/R921) | antibiotic susceptibility test value (host strain YMC14/01/R941) | antibiotic susceptibility test value (host strain YMC14/01/R958) | antibiotic susceptibility test value (host strain YMC14/01/R1006) | antibiotic susceptibility test value (host strain YMC14/01/R1199) | antibiotic susceptibility test value (host strain YMC14/01/R1659) | antibiotic susceptibility test value (host strain YMC14/01/R1722) | antibiotic susceptibility test value (host strain YMC14/01/R1752) | antibiotic susceptibility test value (host strain YMC14/01/R2429) | antibiotic susceptibility test value (host strain YMC14/01/R2572) | antibiotic susceptibility test value (host strain YMC14/01/R2855) | antibiotic susceptibility test value (host strain YMC14/01/R2945) | antibiotic susceptibility test value (host strain YMC14/01/R3007) | antibiotic susceptibility test value (host strain YMC14/01/R3129) | antibiotic susceptibility test value (host strain YMC14/01/R3317) | antibiotic susceptibility test value (host strain YMC14/01/R3474) | antibiotic susceptibility test value (host strain YMC14/01/R3574) | antibiotic susceptibility test value (host strain YMC14/01/U313) | antibiotic susceptibility test value (host strain YMC14/01/U318) | antibiotic susceptibility test value (host strain YMC14/02/L18) | antibiotic susceptibility test value (host strain YMC14/02/P47) | antibiotic susceptibility test value (host strain YMC14/02/R1860) | antibiotic susceptibility test value (host strain YMC14/02/R2417) | antibiotic susceptibility test value (host strain YMC14/02/R2599) | antibiotic susceptibility test value (host strain YMC14/02/R2668) | antibiotic susceptibility test value (host strain YMC14/02/R2758) | antibiotic susceptibility test value (host strain YMC14/02/R2781) | antibiotic susceptibility test value (host strain YMC14/02/R3106) | antibiotic susceptibility test value (host strain YMC14/02/R3419) | antibiotic susceptibility test value (host strain YMC14/02/U1607) | antibiotic susceptibility test value (host strain YMC14/03/L9) | antibiotic susceptibility test value (host strain YMC14/03/P471) | antibiotic susceptibility test value (host strain YMC14/03/R122) | antibiotic susceptibility test value (host strain YMC14/03/R217) | antibiotic susceptibility test value (host strain YMC14/03/R380) | antibiotic susceptibility test value (host strain YMC14/03/R618) | antibiotic susceptibility test value (host strain YMC14/03/R2144) | antibiotic susceptibility test value (host strain YMC14/03/U4616) | antibiotic susceptibility test value (host strain YMC14/04/R1078) | antibiotic susceptibility test value (host strain YMC14/04/R1080) | antibiotic susceptibility value (host strain YMC14/06/R2359) | susceptibility test value (number given before S/I/R) (host strain YMC14/06/R2359) | antibiotic susceptibility value (host strain YMC14/08/R1169) | susceptibility test value (number given before S/I/R) (host strain YMC14/08/R1169) | antibiotic susceptibility value (host strain YMC14/08/T90) | susceptibility test value (number given before S/I/R) (host strain YMC14/08/T90) | antibiotic susceptibility value (host strain YMC15/02/R436) | susceptibility test value (number given before S/I/R) (host strain YMC15/02/R436) | antibiotic susceptibility value (host strain YMC15/02/T28) | susceptibility test value (number given before S/I/R) (host strain YMC15/02/T28) | antibiotic susceptibility value (host strain YMC15/03/R1604) | susceptibility test value (number given before S/I/R) (host strain YMC15/03/R1604) | antibiotic susceptibility value (host strain YMC15/09/R1869) | susceptibility test value (number given before S/I/R) (host strain YMC15/09/R1869) | antibiotic susceptibility value (host strain YMC16/01/P11) | susceptibility test value (number given before S/I/R) (host strain YMC16/01/P11) | antibiotic susceptibility value (host strain YMC16/01/R123) | susceptibility test value (number given before S/I/R) (host strain YMC16/01/R123) | antibiotic susceptibility value (host strain YMC16/01/R198) | susceptibility test value (number given before S/I/R) (host strain YMC16/01/R198)

From patent publication US20240000872A1, “NOVEL BACTERIOPHAGE THAT LYSES ACINETOBACTER GENUS BACTERIA HAVING RESISTANCE TO ANTIBIOTICS” (priority 2020, published 2024)
